From ChEMBL document CHEMBL1201862, “PubChem BioAssay data set” (2004)
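Compound exposure: 48 hours, 5 concentrations, 96-well plates. GI50 = concentration required for 50% inhibition of growth.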 Active and inactive are the calls of the source. Rule as the data show it: active = GI50 up to about 1.1 µM and inactive = higher.

Legend:
Assay in all cases: DTP human tumour cell line panel, 48 h
HCT-15 = tested on: HCT-15
HL-60 = tested on: HL-60
HOP-62 = tested on: HOP-62
K562 = tested on: K562
KM12 = tested on: KM12
M14 = tested on: M14
MDA-MB-231 = tested on: MDA-MB-231
NCI-H226 = tested on: NCI-H226
NCI/ADR-RES = tested on: NCI/ADR-RES
OVCAR-5 = tested on: OVCAR-5
OVCAR-8 = tested on: OVCAR-8
PC-3 = tested on: PC-3
SF-268 = tested on: SF-268
SF-295 = tested on: SF-295
SK-MEL-28 = tested on: SK-MEL-28
TK-10 = tested on: TK-10
U-251 = tested on: U-251
UACC-257 = tested on: UACC-257
OVCAR-4 = tested on: OVCAR-4

SMILES	GI50 (HCT-15) [µM]	GI50 (HL-60)	GI50 (HOP-62)	GI50 (K562)	GI50 (KM12)	GI50 (M14)	GI50 (MDA-MB-231)	GI50 (NCI-H226)	GI50 (NCI/ADR-RES)	GI50 (OVCAR-5)	GI50 (OVCAR-8)	GI50 (PC-3)	GI50 (SF-268)	GI50 (SF-295)	GI50 (SK-MEL-28)	GI50 (TK-10)	GI50 (U-251)	GI50 (UACC-257)	GI50 (OVCAR-4)
O=c1c(C(c2ccc3ccccc3c2)c2c(O)oc3cc(O)ccc3c2=O)c(O)oc2cc(O)ccc12	> 100	38.5 µM (inactive)	> 100 µM (inactive)	30.5 µM (inactive)	30.6 µM (inactive)	> 100 µM (inactive)	> 100 µM (inactive)	> 100 µM (inactive)	> 100 µM (inactive)	> 100 µM (inactive)	71 µM (inactive)	> 100 µM (inactive)	15.9 µM (inactive)	> 100 µM (inactive)	> 100 µM (inactive)	> 100 µM (inactive)	41.5 µM (inactive)	> 100 µM (inactive)	
CC1=C(Oc2ccccc2)C(CCC(=O)O)c2c(O)cc(Cl)c(O)c21 (stereo not given)	> 100	> 100 µM (inactive)	> 100 µM (inactive)	> 100 µM (inactive)	> 100 µM (inactive)	> 100 µM (inactive)					> 100 µM (inactive)		> 100 µM (inactive)	> 100 µM (inactive)	> 100 µM (inactive)	> 100 µM (inactive)	> 100 µM (inactive)	> 100 µM (inactive)	> 100 µM (inactive)
O=C(O)CCC(=O)N1c2ccccc2CC1c1c[nH]c2ccccc12 (stereo not given)	> 100	> 100 µM (inactive)	> 100 µM (inactive)	> 100 µM (inactive)	65.6 µM (inactive)	> 100 µM (inactive)		> 100 µM (inactive)		> 100 µM (inactive)	> 100 µM (inactive)		> 100 µM (inactive)	> 100 µM (inactive)	> 100 µM (inactive)	> 100 µM (inactive)	> 100 µM (inactive)	> 100 µM (inactive)	> 100 µM (inactive)
Cc1cc(N(CCC#N)CCC#N)ccc1/C=C(\NC(=O)/C=C/c1ccccc1)NC(=O)Nc1ccccc1C	> 100	> 100 µM (inactive)		> 100 µM (inactive)	> 100 µM (inactive)	> 100 µM (inactive)		22.6 µM (inactive)		> 100 µM (inactive)	30.2 µM (inactive)		24.7 µM (inactive)	25.4 µM (inactive)	> 100 µM (inactive)		17.1 µM (inactive)	> 100 µM (inactive)	26.8 µM (inactive)
C=C1CCCC(C)(C)[C@@H]1CC/C(C)=C/Cn1c2cccc(=O)c-2nc2ccccc21	1.18	0.127 µM (active)	3.48 µM (inactive)	1.07 µM (active)	2.81 µM (inactive)			3.99 µM (inactive)	0.656 µM (active)	3.25 µM (inactive)	1.55 µM (inactive)		1.39 µM (inactive)	1.45 µM (inactive)	4.63 µM (inactive)		1.53 µM (inactive)	1.96 µM (inactive)	1.81 µM (inactive)
CNC(C)C(O)c1ccc2oc3cc(=O)c4ccccc4c-3nc2c1 (stereo not given)	4.83	21.8 µM (inactive)	5.82 µM (inactive)	2.72 µM (inactive)	9.84 µM (inactive)	4.65 µM (inactive)	45.5 µM (inactive)		14.4 µM (inactive)	32.5 µM (inactive)	6.15 µM (inactive)	32.6 µM (inactive)	27.2 µM (inactive)	4.59 µM (inactive)	11.5 µM (inactive)	38.7 µM (inactive)	4.34 µM (inactive)	5.37 µM (inactive)	17.3 µM (inactive)
